From ChEMBL document CHEMBL1155987, “2,3,4,5-Tetrahydro-1H-pyrido[2,3-b and e][1,4]diazepines as inhibitors of the bacterial enoyl ACP reductase, FabI” (Bioorg Med Chem Lett, 2009) come the findings set out here.

For data set [1], the system named is Staphylococcus aureus. In words: microbe, parasite or virus in culture. The following applies: 29213.
Description: Antibacterial activity against Staphylococcus aureus 29213 by microdilution method
The next data set relates to Escherichia coli. In words: microbe, parasite or virus in culture.
For data set [2], the system named is Staphylococcus aureus. Nature of the data set: microbe, parasite or virus in culture. The following applies: 934335.
Description: Antibacterial activity against triclosan-resistant Staphylococcus aureus 934335 by microdilution method
Data set [3] concerns the target T1, Enoyl-[acyl-carrier-protein] reductase [NADH] FabI (Escherichia coli K-12, UniProt P0AEK4).
T1 sequence (P0AEK4 whole entry): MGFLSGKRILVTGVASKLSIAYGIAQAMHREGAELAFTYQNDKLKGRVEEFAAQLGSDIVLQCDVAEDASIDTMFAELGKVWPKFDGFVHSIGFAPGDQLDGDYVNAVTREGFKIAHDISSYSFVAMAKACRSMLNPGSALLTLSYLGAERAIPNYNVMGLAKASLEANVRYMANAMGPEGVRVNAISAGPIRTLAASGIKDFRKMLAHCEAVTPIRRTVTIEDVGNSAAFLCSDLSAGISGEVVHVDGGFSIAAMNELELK
Description: Inhibition of Escherichia coli FabI

The test system of data set [4] is Staphylococcus aureus. Nature of the data set: microbe, parasite or virus in culture. Conditions: 43300.
Description: Antibacterial activity against methicillin-resistant Staphylococcus aureus 43300 by microdilution method
Data set [5] is described as follows: physchem. Conditions: aqueous, pH 7.4.
Description: Aqueous solubility at pH 7.4
Data set [6] is described as follows: physchem. The following applies: aqueous, pH 4.
Description: Aqueous solubility at pH 4.0
The subject of data set [7] is Staphylococcus aureus. Nature of the data set: Antibacterial activity against Staphylococcus aureus 29213 infected neutropenic mouse thigh model assessed as change in CFU at 100 mg/kg, po after 24 hrs. The format is functional, organism-based. Also noted: dose 100 mg/kg.

SMILES strings stand for the structures. In brackets after ≈: the same amount, converted by molar mass. Activity calls are given as the source filed them. No cut-off for these calls is given here.

As usually defined, the IC50 is the concentration that inhibits the measured activity by half. Lower therefore signals inhibition by little substance. In general, solubility refers to how much of the substance goes into solution per volume.

Description for Escherichia coli: Antibacterial activity against Escherichia coli efflux pump mutant by microdilution method

For the compound `Cc1c(CN(C)C(=O)/C=C/c2cnc3c(c2)CNC(=O)CN3)oc2ccccc12`, the MIC was ≤ 0.063 µg/mL against Staphylococcus aureus [1], ≤ 0.063 µg/mL in the data set on Escherichia coli, 4 µg/mL (≈ 10.2 µM) in the data set on Staphylococcus aureus [2] and ≤ 0.063 µg/mL in the data set with Staphylococcus aureus [4]. In data set [3], this compound came in with a half-inhibitory concentration (IC50) of 39 nM.

For the compound `CN(Cc1cc2ccccc2n1C)C(=O)/C=C/c1cnc2c(c1)CCC(=O)N2`, the MIC against Staphylococcus aureus [1] is ≤ 0.016 µg/mL; in the data set with Escherichia coli it was ≤ 0.063 µg/mL; with Staphylococcus aureus [2], 0.5 µg/mL (≈ 1.34 µM); against Staphylococcus aureus [4] it was 0.031 µg/mL (≈ 0.0828 µM). The same compound showed an IC50 in data set [3] of 150 nM. Besides, the values for the solubility in the data set “physchem [5]” and in “physchem [6]” were 5.6 µg/mL (≈ 15 µM) and 6.2 µg/mL (≈ 16.6 µM), respectively.

With `Cc1c(CN(C)C(=O)/C=C/c2cnc3c(c2)CNCCN3)oc2ccccc12`, the MIC in the data set on Staphylococcus aureus [1] is 0.063 µg/mL (≈ 0.167 µM); with Escherichia coli, ≤ 0.063 µg/mL; against Staphylococcus aureus [2], 4 µg/mL (≈ 10.6 µM); against Staphylococcus aureus [4], 0.063 µg/mL (≈ 0.167 µM). In data set [3], this compound showed an IC50 of 14 nM. Also, the solubility in the data set “physchem [5]” is 440 µg/mL (≈ 1170 µM); in “physchem [6]”, > 650 µg/mL.

On to `Cc1c(CN(C)C(=O)/C=C/c2cnc3c(c2)CNCCN3)sc2ccccc12`, for which the MIC is ≤ 0.016 µg/mL with Staphylococcus aureus [1], ≤ 0.063 µg/mL against Escherichia coli, 2 µg/mL (≈ 5.1 µM) against Staphylococcus aureus [2] and 0.031 µg/mL (≈ 0.079 µM) in the data set on Staphylococcus aureus [4]. The same compound showed an IC50 in data set [3] of 9 nM. Further, the solubility in the data set “physchem [5]” came out at 33 µg/mL (≈ 84.1 µM); in “physchem [6]”, 100 µg/mL (≈ 255 µM).

Consider `Cc1c(CN(C)C(=O)/C=C/c2cnc3c(c2)NCCCN3)oc2ccccc12`, for which the MIC was ≤ 0.016 µg/mL in the data set on Staphylococcus aureus [1], ≤ 0.063 µg/mL against Escherichia coli, 0.5 µg/mL (≈ 1.33 µM) in the data set with Staphylococcus aureus [2] and 0.031 µg/mL (≈ 0.0823 µM) with Staphylococcus aureus [4]. Also, the half-inhibitory concentration (IC50) in data set [3] was 12 nM. The solubility was 29 µg/mL (≈ 77 µM) in the data set “physchem [5]” and > 100 µg/mL in “physchem [6]”.

Regarding `Cc1c(CN(C)C(=O)/C=C/c2cnc3c(c2)NCCC(=O)N3)oc2ccccc12`, the MIC with Staphylococcus aureus [1] is ≤ 0.016 µg/mL; in the data set with Escherichia coli it was ≤ 0.063 µg/mL; with Staphylococcus aureus [2], ≤ 0.016 µg/mL; against Staphylococcus aureus [4] it was ≤ 0.016 µg/mL. In data set [3], this compound showed a concentration for half-maximal inhibition (IC50) of 25 nM. In addition, the figures for the solubility in the data set “physchem [5]” and in the data set “physchem [6]” were 1.7 µg/mL (≈ 4.35 µM) and 1.5 µg/mL (≈ 3.84 µM), respectively.

Consider `CN1CC(=O)Nc2ncc(/C=C/C(=O)N(C)Cc3cc4ccccc4n3C)cc2C1`, for which the MIC is 4 µg/mL (≈ 9.91 µM) in the data set on Staphylococcus aureus [1], > 32 µg/mL in the data set on Escherichia coli, 8 µg/mL (≈ 19.8 µM) in the data set on Staphylococcus aureus [2] and 0.5 µg/mL (≈ 1.24 µM) with Staphylococcus aureus [4]. The solubility in the data set “physchem [5]” worked out at 9.7 µg/mL (≈ 24 µM); in “physchem [6]”, 73 µg/mL (≈ 181 µM).

With `Cc1c(CN(C)C(=O)/C=C/c2cnc3c(c2)NCCC(=O)N3)sc2ccc(F)cc12`, the MIC in the data set with Staphylococcus aureus [1] was ≤ 0.016 µg/mL; against Escherichia coli, 1 µg/mL (≈ 2.36 µM); in the data set with Staphylococcus aureus [2], 0.125 µg/mL (≈ 0.294 µM); against Staphylococcus aureus [4], ≤ 0.016 µg/mL. Also, inhibition in data set [3] was half-maximal at 25 nM (IC50). For the same compound, the solubility in “physchem [5]” is 38 µg/mL (≈ 89.5 µM); in the data set “physchem [6]”, 31 µg/mL (≈ 73 µM).

Regarding `Cc1c(CN(C)C(=O)/C=C/c2cnc3c(c2)NCCC(=O)N3)[nH]c2ccccc12`, the MIC was 0.031 µg/mL (≈ 0.0796 µM) in the data set on Staphylococcus aureus [1], 4 µg/mL (≈ 10.3 µM) against Escherichia coli, 2 µg/mL (≈ 5.14 µM) against Staphylococcus aureus [2] and 0.063 µg/mL (≈ 0.162 µM) in the data set with Staphylococcus aureus [4]. This compound showed an IC50 in data set [3] of 840 nM. Also, the figures for the solubility in the data set “physchem [5]” and in “physchem [6]” were 37 µg/mL (≈ 95 µM) and 39 µg/mL (≈ 100 µM), respectively.

Consider `Cc1c(CN(C)C(=O)/C=C/c2cnc3c(c2)CNC(=O)CCN3)oc2ccccc12`, for which the MIC in the data set with Staphylococcus aureus [1] is ≤ 0.016 µg/mL; against Escherichia coli it was ≤ 0.063 µg/mL; in the data set on Staphylococcus aureus [2] it was 0.5 µg/mL (≈ 1.24 µM); in the data set on Staphylococcus aureus [4] it was 0.031 µg/mL (≈ 0.0766 µM). Moreover, in data set [3], the half-maximal inhibitory concentration (IC50) came out at 30 nM. Moreover, the solubility in “physchem [5]” stood at 17 µg/mL (≈ 42 µM); in the data set “physchem [6]”, 46 µg/mL (≈ 114 µM).

Consider `Cc1c(CN(C)C(=O)/C=C/c2cnc3c(c2)CNCCCN3)oc2ccccc12`, for which the MIC with Staphylococcus aureus [1] amounted to 0.25 µg/mL (≈ 0.64 µM); in the data set on Escherichia coli it was 8 µg/mL (≈ 20.5 µM); against Staphylococcus aureus [2], 8 µg/mL (≈ 20.5 µM); in the data set on Staphylococcus aureus [4], 0.5 µg/mL (≈ 1.28 µM). The compound also gave an IC50 in data set [3] of 16 nM. For the same compound, the solubility in “physchem [5]” worked out at 210 µg/mL (≈ 538 µM); in the data set “physchem [6]”, 1400 µg/mL (≈ 3590 µM).

For the compound `Cc1c(CN(C)C(=O)/C=C/c2cnc3c(c2)CNCC(=O)N3)oc2ccccc12`, the MIC was ≤ 0.063 µg/mL in the data set on Staphylococcus aureus [1], ≤ 0.063 µg/mL in the data set with Escherichia coli, 0.125 µg/mL (≈ 0.32 µM) with Staphylococcus aureus [2] and ≤ 0.063 µg/mL with Staphylococcus aureus [4]. The same compound came in with a 50% inhibitory concentration (IC50) in data set [3] of 29 nM. Moreover, the solubility in the data set “physchem [5]” was determined as 20 µg/mL (≈ 51.2 µM); in the data set “physchem [6]” it was 170 µg/mL (≈ 435 µM).

Regarding `CN(Cc1cc2ccccc2n1C)C(=O)/C=C/c1cnc2c(c1)NCCC(=O)N2`, the MIC is 0.25 µg/mL (≈ 0.642 µM) against Staphylococcus aureus [1], 1 µg/mL (≈ 2.57 µM) with Escherichia coli, 1 µg/mL (≈ 2.57 µM) with Staphylococcus aureus [2] and 0.125 µg/mL (≈ 0.321 µM) in the data set with Staphylococcus aureus [4]. Besides, the half-inhibitory concentration (IC50) in data set [3] is 136 nM. The solubility stood at 33 µg/mL (≈ 84.7 µM) in “physchem [5]” and 25 µg/mL (≈ 64.2 µM) in “physchem [6]”.

On to `CN(Cc1cc2ccccc2n1C)C(=O)/C=C/c1cnc2c(c1)CNCC(=O)N2`, for which the MIC in the data set on Staphylococcus aureus [1] turned out to be 0.125 µg/mL (≈ 0.321 µM); in the data set with Escherichia coli, 1 µg/mL (≈ 2.57 µM); with Staphylococcus aureus [2], 1 µg/mL (≈ 2.57 µM); in the data set with Staphylococcus aureus [4], 0.125 µg/mL (≈ 0.321 µM). Further, the IC50 in data set [3] is 330 nM. The solubility in “physchem [5]” is 82 µg/mL (≈ 211 µM); in the data set “physchem [6]” it was > 100 µg/mL. Besides, the outcome with Staphylococcus aureus [7] was Active.

In the case of `Cc1c(CN(C)C(=O)/C=C/c2cnc3c(c2)CCC(=O)N3)sc2ccccc12`, the MIC is 0.125 µg/mL (≈ 0.319 µM) with Staphylococcus aureus [1], 4 µg/mL (≈ 10.2 µM) against Escherichia coli, 4 µg/mL (≈ 10.2 µM) with Staphylococcus aureus [2] and ≤ 0.063 µg/mL against Staphylococcus aureus [4]. Besides, half-maximal inhibition in data set [3] (IC50) was put at 64 nM. Also, the solubility was determined as 0.3 µg/mL (≈ 0.766 µM) in “physchem [5]” and 0.2 µg/mL (≈ 0.511 µM) in “physchem [6]”.
